Here are results for two compounds from patent publication US10653693B2, “PRMT5 inhibitors and uses thereof” (Epizyme, Inc., priority 2014, dated 2020).

Read-outs that look alike come from different tables or passages of the source.

One experiment has as its system Maver-1. The experiment is described as follows: Long-term proliferation (LTP) assay. The experiment is classed as cell-based. To be noted: Homo sapiens.
The test system of experiment [1] is sDMA methylation in Granta-519 cells. Description: sDMA western blot, 10 kDa band to total SmD3. In kind it is cell-based. Particulars: Homo sapiens. As to the method: (§1) The measurement of the 10 kDa band was used to calculate the methylation IC50 values. […] Concentration-dependent decreases in the 10 kDa band were observed on day 4 in all cell lines tested with representative western blots shown for Z-138 and Maver-1 cell lines (FIG. 1). Levels of the 10 kDa band from the western blots were quantified by densitometry and ratios of 10 kDa band (postulated to be SmD3me2s) to total SmD3 were calculated to determine the IC50s (Table 2, n=1 for all samples).
(A western blot detects proteins with antibodies after separation by electrophoresis.)

Experiment [2] concerns sDMA methylation in Jeko-1 cells. The experiment is described as follows: sDMA western blot, 10 kDa band to total SmD3. Particulars: Homo sapiens. In kind it is cell-based. Here is the method:
as §1

For experiment [3], the system named is sDMA methylation in Maver-1 cells. Description: sDMA western blot, 10 kDa band to total SmD3. In kind it is cell-based. To be noted: Homo sapiens. As to the method: as §1
Experiment [4] relates to sDMA methylation in Mino cells. The experiment is described as follows: sDMA western blot, 10 kDa band to total SmD3. To be noted: Homo sapiens. In kind it is cell-based. Here is the method: as §1
Experiment [5] relates to sDMA methylation in Z-138 cells. Description: sDMA western blot, 10 kDa band to total SmD3. The experiment is classed as cell-based. To be noted: Homo sapiens. As to the method: as §1
Another experiment relates to Z-138 xenograft model. The experiment is described as follows: 21 day mantle cell lymphoma xenograft study: TGI and tumor methyl mark. The experiment is classed as in vivo. Particulars: Z-138 efficacy study; all dose groups tested; day 21. Here is the method: Data presented in this example were determined after analysis of 21 day samples of mantle cell lymphoma tumors. Cmin PK samples were taken prior to the last dose on day 21. Tumors were excised, weighed and processed for methyl mark. Methyl mark reduction was measured in tumor samples and is shown as percent of vehicle control (POC). […] Tumor growth inhibition was determined using tumor volume reduction at day 21 expressed as a percent of POC. In vivo inhibition curves were also generated and IC50 values determined. Plasma levels from each group are averaged from 5 animals. […] The average body weight loss (BWL) in all groups was <6%. All doses tested show >50% TGI. […] The average BWL in all groups was <4%. The average BWL in all groups was <8%, except in the 100 mg/kg does group were 4 animals exceeded BWL of 15%.

The subject of experiment [6] is heme cancer cell lines (MCL, AML, MM, lymphoma). The experiment is described as follows: Cell Titer-Glo growth/death assay. The experiment is classed as cell-based. Particulars: several heme cancer cell lines incl. MCL, MM and lymphoma. As to the method:
Heme cancer cells were treated with a PRMT5 inhibitor and a Cell Titer-Glo growth/death assay was performed.

The subject of experiment [7] is SW48 colon cancer cells (SW48−/− vs SW48). The experiment is described as follows: Sensitivity of cells lacking p53 versus wild-type. The experiment is classed as cell-based. To be noted: based on EC50, gIC50, or gIC90. The text has this: PRMT5 methylation of non-histone substrates (such as E2F1 and p53) also contributes to cancer cell growth and death. Results of Western blot and PCR experiments indicate PRMT5 inhibition leads to gene expression and splicing changes, ultimately resulting in the induction of p53 in cancer cells. A PRMT5 inhibitor of Formula C was used to generate the data in FIG. 21 and FIG. 22.

[8] abbreviates: 96 h, day 4, N = 1, read-out: sDMA Western blot IC50 10 kDa Band.
Where [9] appears, read: Table 3, read-out: sDMA Western IC50.

Take `CC(=O)N1CCC(Nc2cc(C(=O)NC[C@H](O)CN3CCc4ccccc4C3)ccn2)CC1` [Formula B]: the IC50 is 26 nM in the experiment with Maver-1 (Maver1, 264 h, 11-day treatment, N = 1, read-out: Formula B LTP IC50); 15.3 nM with Maver-1 (Maver1, Table 3, read-out: LTP IC50); 0.3 nM in experiment [1] (setting [8]); 0.3 nM in experiment [1] (setting [9]); 9.5 nM in [2] (setting [8]); 9.5 nM in experiment [2] (setting [9]). Moreover, the IC50 stood at 0.1 nM in experiment [3] (Maver1, 96 h, day 4, N = 1, read-out: sDMA Western blot IC50 10 kDa Band); 0.1 nM in experiment [3] (Maver1, Table 3, read-out: sDMA Western IC50); 2 nM in [4] (setting [8]); 2 nM in experiment [4] (setting [9]); 1 nM in [5] (setting [8]); 1 nM in experiment [5] (setting [9]). Also, the 90% effect concentration (IC90) in the experiment with Maver-1 (Maver1, 264 h, 11-day treatment, N = 1, read-out: Formula B LTP IC90) was 73 nM. Further, the “methyl mark in tumors (sDMA Western blot)” value in the experiment with Z-138 xenograft model is recorded as “completely removed”.

For the compound `O=C(NC[C@H](O)CN1CCc2ccccc2C1)c1ccnc(NC2CCC2)c1` [Formula C], the “proliferation in heme cancer cell lines” value in [6] is listed as “inhibits proliferation”. The “sensitivity of cells lacking p53 compared to wild-type” value in experiment [7] is reported as “less sensitive”.

As usually defined, the IC50 is the midpoint of a concentration-inhibition curve. As usually defined, the IC90 is the point of the concentration-response curve where the effect stands at 90%.
